Test results as given in US20090018111A1, “Novel Antimicrobial Medicament” (priority 2004, published 2009).
Where two headings read alike, the source gives them in different places.

Key:
Experiment in all cases: Sensitivity test (agar dilution), clinical isolate
Type in all cases: cell-based, Acinetobacter calcoaceticus and Acinetobacter lwoffi
Acinetobacter spp. 256 = tested on: Acinetobacter spp. 256
Experimental: (§1) In addition, the antibacterial activities were tested against strains which are comparatively less sensitive to β-lactam compounds, namely clinically isolated 13 strains of Acinetobacter calcoaceticus and Acinetobacter lwoffi, clinically isolated 11 strains of Serratia marcescens, clinically isolated 12 strains of Burkholderia cepacia, and clinically isolated 15 strains of Pseudomonas aeruginosa.
(§2) According to the standard method of Japan Chemotherapeutic Society (Chemotherapy, vol. […], p 76-79 (1981)) the test was carried out using the agar dilution method. After dissolving test samples in distilled water, agar medium containing the test samples was prepared in such a manner that the final concentration became twice serial dilution by pouring serially diluted combination drug solution or a single drug solution into agar medium. As agar medium was used Mueller Hinton Agar medium (MHA). Then, each strain was cultivated over night at 37° C. in an incubator and suspended in buffered saline solution with gelatin (BSG) in the concentration of about 10^6 CFU/ml. The suspension (about 5 μl) containing test strains was inoculated to the medium containing the test samples by Micro Planter.
(§3) Each drug was weighed, and dissolved in distilled water to give a test sample. When the drugs are used in combination, two kinds of solution containing each drug were mixed so as to be various ratio of concentration to give a mixed solution. When the sample is subjected to sensitivity test, this mixed solution was diluted by twice serial dilution method.
(§4) Furthermore, when the drug is solely used, each test sample was used as it is, and diluted by twice serial dilution method from the maximum concentration to the minimum concentration.

Acinetobacter spp. 175 = tested on: Acinetobacter spp. 175
Experimental: as §1, §2, §3, §4

[1] = tested on: Acinetobacter spp. 1338-2
Experimental: as §1, §2, §3, §4

Acinetobacter spp. 1195 = tested on: Acinetobacter spp. 1195
Experimental: as §1, §2, §3, §4

[2] = tested on: Acinetobacter spp. Jan-54
Experimental: as §1, §2, §3, §4

[3] = tested on: Acinetobacter spp. Jan-99
Experimental: as §1, §2, §3, §4

[4] = tested on: Acinetobacter spp. Jan-81
Experimental: as §1, §2, §3, §4

[5] = tested on: Acinetobacter spp. 1399-2
Experimental: as §1, §2, §3, §4

Acinetobacter spp. 1198 = tested on: Acinetobacter spp. 1198
Experimental: as §1, §2, §3, §4

Acinetobacter spp. 14712 = tested on: Acinetobacter spp. 14712
Experimental: as §1, §2, §3, §4

[6] = SPP.256, Concomitant (ME:SM = 1:1)
[7] = SPP.256, Concomitant (ME:SM = 1:2)
[8] = SPP.256, Concomitant (ME:SM = 1:4)
[9] = SPP.256, Concomitant (ME:SM = 2:1)
[10] = Acinetobacter, SPP.175, Concomitant (ME:SM = 1:2), read-out: MIC
[11] = Acinetobacter, SPP.175, Concomitant (ME:SM = 1:4), read-out: MIC
[12] = SPP.13382, Concomitant (ME:SM = 1:1), read-out: MIC
[13] = SPP.13382, Concomitant (ME:SM = 1:2), read-out: MIC
[14] = SPP.13382, Concomitant (ME:SM = 2:1), read-out: MIC
[15] = SPP.13382, alone, read-out: MIC
[16] = SPP.1195, Concomitant (ME:SM = 1:1), read-out: MIC
[17] = SPP.1195, Concomitant (ME:SM = 1:4), read-out: MIC
[18] = SPP.1195, Concomitant (ME:SM = 2:1), read-out: MIC
[19] = Acinetobacter, Concomitant (ME:SM = 1:1), read-out: MIC
[20] = Acinetobacter, Concomitant (ME:SM = 2:1), read-out: MIC
[21] = Acinetobacter, alone, read-out: MIC
[22] = SPP.13992, Concomitant (ME:SM = 1:1)
[23] = SPP.13992, Concomitant (ME:SM = 1:2)
[24] = SPP.13992, Concomitant (ME:SM = 1:4)
[25] = SPP.13992, Concomitant (ME:SM = 2:1)
[26] = SPP.1198, Concomitant (ME:SM = 1:1), read-out: MIC
[27] = SPP.1198, Concomitant (ME:SM = 1:4), read-out: MIC
[28] = SPP.1198, Concomitant (ME:SM = 2:1), read-out: MIC
[29] = SPP.14712, Concomitant (ME:SM = 1:1)
[30] = SPP.14712, Concomitant (ME:SM = 1:2)
[31] = SPP.14712, Concomitant (ME:SM = 1:4)
[32] = SPP.14712, Concomitant (ME:SM = 2:1)

Work on C[C@@H](O)[C@H]1C(=O)N2C(C(=O)O)=C(S[C@@H]3CN[C@H](C(=O)N(C)C)C3)[C@H](C)[C@H]12 [MEPM, meropenem] yielded an MIC (Acinetobacter spp. 256; [6]) of 0.5 µg/mL, an MIC (Acinetobacter spp. 256; [7]) of 0.5 µg/mL and an MIC (Acinetobacter spp. 256; [8]) of 0.25 µg/mL. The MIC (Acinetobacter spp. 256; [9]) was 0.5 µg/mL, the MIC (Acinetobacter spp. 256; SPP.256, alone) was 1 µg/mL and the MIC (Acinetobacter spp. 175; Acinetobacter, SPP.175) was 0.125 µg/mL. It also gave an MIC (Acinetobacter spp. 175; [10]) of 0.063 µg/mL, an MIC (Acinetobacter spp. 175; [11]) of 0.063 µg/mL and an MIC (Acinetobacter spp. 175; Concomitant (ME:SM = 1:1)) of 0.125 µg/mL. For the same compound, the MIC (Acinetobacter spp. 175; Concomitant (ME:SM = 2:1)) was 0.125 µg/mL, the MIC ([1]; SPP.13382) was 0.125 µg/mL and the MIC [1, 12] was 0.5 µg/mL. It also gave an MIC [1, 13] of 0.5 µg/mL, an MIC [1, 14] of 0.5 µg/mL and an MIC [1, 15] of 1 µg/mL. It also gave an MIC (Acinetobacter spp. 1195; SPP.1195) of 0.125 µg/mL, an MIC (Acinetobacter spp. 1195; [16]) of 0.25 µg/mL and an MIC (Acinetobacter spp. 1195; [17]) of 0.063 µg/mL. The MIC (Acinetobacter spp. 1195; [18]) was 0.25 µg/mL, the MIC (Acinetobacter spp. 1195; SPP.1195, alone, read-out: MIC) was 0.25 µg/mL and the MIC ([2]; Concomitant (ME:SM = 1:1)) was 0.5 µg/mL. For the same compound, the MIC ([2]; Concomitant (ME:SM = 1:2)) was 0.5 µg/mL, the MIC ([2]; Concomitant (ME:SM = 1:4)) was 0.25 µg/mL and the MIC ([2]; Concomitant (ME:SM = 2:1)) was 0.5 µg/mL. For the same compound, the MIC ([2]; alone) was 1 µg/mL, the MIC ([3]; Acinetobacter) was 0.125 µg/mL and the MIC [3, 19] was 0.25 µg/mL. For the same compound, the MIC [3, 20] was 0.25 µg/mL, the MIC [3, 21] was 0.25 µg/mL and the MIC ([3]; Concomitant (ME:SM = 1:2)) was 0.125 µg/mL. For the same compound, the MIC ([4]; Concomitant (ME:SM = 1:1)) was 8 µg/mL, the MIC ([4]; Concomitant (ME:SM = 1:2)) was 2 µg/mL and the MIC ([4]; Concomitant (ME:SM = 1:4)) was 2 µg/mL. For the same compound, the MIC ([4]; Concomitant (ME:SM = 2:1)) was 4 µg/mL, the MIC ([4]; alone) was 4 µg/mL and the MIC [5, 22] was 0.5 µg/mL. It also gave an MIC [5, 23] of 0.5 µg/mL, an MIC [5, 24] of 0.25 µg/mL and an MIC [5, 25] of 0.5 µg/mL. For the same compound, the MIC ([5]; SPP.13992, alone) was 0.5 µg/mL, the MIC (Acinetobacter spp. 1198; SPP.1198) was 0.125 µg/mL and the MIC (Acinetobacter spp. 1198; [26]) was 0.25 µg/mL. For the same compound, the MIC (Acinetobacter spp. 1198; [27]) was 0.063 µg/mL, the MIC (Acinetobacter spp. 1198; [28]) was 0.25 µg/mL and the MIC (Acinetobacter spp. 1198; SPP.1198, alone, read-out: MIC) was 0.5 µg/mL. For the same compound, the MIC (Acinetobacter spp. 14712; [29]) was 0.5 µg/mL, the MIC (Acinetobacter spp. 14712; [30]) was 0.5 µg/mL and the MIC (Acinetobacter spp. 14712; [31]) was 0.25 µg/mL. It also gave an MIC (Acinetobacter spp. 14712; [32]) of 0.5 µg/mL and an MIC (Acinetobacter spp. 14712; SPP.14712, alone) of 1 µg/mL.

C[C@H]1C=C(c2csc(SC3=C(C(=O)O)N4C(=O)[C@H]([C@@H](C)O)[C@H]4[C@H]3C)n2)CN1 [SM, (4R,5S,6S)-6-[(1R)-1-Hydroxyethyl]-4-methyl-3-({4-[(5S)-5-methyl-2,5-dihydro-1H-pyrrol-3-yl]-1,3-thiazol-2-yl}sulfanyl)-7-oxo-1-azabicyclo[3.2.0]hept-2-ene-2-carboxylic acid] was tested, and the MIC (Acinetobacter spp. 256; [6]) was 0.5 µg/mL, the MIC (Acinetobacter spp. 256; [7]) was 1 µg/mL and the MIC (Acinetobacter spp. 256; [8]) was 1 µg/mL. For the same compound, the MIC (Acinetobacter spp. 256; [9]) was 0.25 µg/mL, the MIC (Acinetobacter spp. 256; SPP.256, alone) was 1 µg/mL and the MIC (Acinetobacter spp. 175; Acinetobacter, SPP.175, Concomitant (ME:SM = 1:1), read-out: MIC) was 0.125 µg/mL. The MIC (Acinetobacter spp. 175; [10]) was 0.125 µg/mL, the MIC (Acinetobacter spp. 175; [11]) was 0.25 µg/mL and the MIC (Acinetobacter spp. 175; Acinetobacter, SPP.175, Concomitant (ME:SM = 2:1), read-out: MIC) was 0.063 µg/mL. For the same compound, the MIC (Acinetobacter spp. 175; Acinetobacter, SPP.175, alone, read-out: MIC) was 0.5 µg/mL, the MIC [1, 12] was 0.5 µg/mL and the MIC [1, 13] was 1 µg/mL. It also gave an MIC ([1]; SPP.13382, Concomitant (ME:SM = 1:4), read-out: MIC) of 0.5 µg/mL, an MIC [1, 14] of 0.25 µg/mL and an MIC [1, 15] of 0.5 µg/mL. For the same compound, the MIC (Acinetobacter spp. 1195; [16]) was 0.25 µg/mL, the MIC (Acinetobacter spp. 1195; SPP.1195, Concomitant (ME:SM = 1:2), read-out: MIC) was 0.25 µg/mL and the MIC (Acinetobacter spp. 1195; [17]) was 0.25 µg/mL. It also gave an MIC (Acinetobacter spp. 1195; [18]) of 0.125 µg/mL, an MIC (Acinetobacter spp. 1195; SPP.1195, alone, read-out: MIC) of 0.5 µg/mL and an MIC ([2]; Concomitant (ME:SM = 1:1)) of 0.5 µg/mL. For the same compound, the MIC ([2]; Concomitant (ME:SM = 1:2)) was 1 µg/mL, the MIC ([2]; Concomitant (ME:SM = 1:4)) was 1 µg/mL and the MIC ([2]; Concomitant (ME:SM = 2:1)) was 0.25 µg/mL. For the same compound, the MIC ([2]; alone) was 2 µg/mL, the MIC [3, 19] was 0.25 µg/mL and the MIC ([3]; Acinetobacter, Concomitant (ME:SM = 1:2), read-out: MIC) was 0.25 µg/mL. The MIC ([3]; Acinetobacter, Concomitant (ME:SM = 1:4), read-out: MIC) was 0.5 µg/mL, the MIC [3, 20] was 0.125 µg/mL and the MIC [3, 21] was 0.5 µg/mL. For the same compound, the MIC ([4]; Concomitant (ME:SM = 1:1)) was 8 µg/mL, the MIC ([4]; Concomitant (ME:SM = 1:2)) was 4 µg/mL and the MIC ([4]; Concomitant (ME:SM = 1:4)) was 8 µg/mL. It also gave an MIC ([4]; Concomitant (ME:SM = 2:1)) of 2 µg/mL, an MIC ([4]; alone) of 32 µg/mL and an MIC [5, 22] of 0.5 µg/mL. It also gave an MIC [5, 23] of 1 µg/mL, an MIC [5, 24] of 1 µg/mL and an MIC [5, 25] of 0.25 µg/mL. For the same compound, the MIC ([5]; SPP.13992, alone) was 2 µg/mL, the MIC (Acinetobacter spp. 1198; [26]) was 0.25 µg/mL and the MIC (Acinetobacter spp. 1198; SPP.1198, Concomitant (ME:SM = 1:2), read-out: MIC) was 0.25 µg/mL. The MIC (Acinetobacter spp. 1198; [27]) was 0.25 µg/mL, the MIC (Acinetobacter spp. 1198; [28]) was 0.125 µg/mL and the MIC (Acinetobacter spp. 1198; SPP.1198, alone, read-out: MIC) was 0.5 µg/mL. For the same compound, the MIC (Acinetobacter spp. 14712; [29]) was 0.5 µg/mL, the MIC (Acinetobacter spp. 14712; [30]) was 1 µg/mL and the MIC (Acinetobacter spp. 14712; [31]) was 1 µg/mL. For the same compound, the MIC (Acinetobacter spp. 14712; [32]) was 0.25 µg/mL and the MIC (Acinetobacter spp. 14712; SPP.14712, alone) was 2 µg/mL.
